# In ChEMBL document CHEMBL1201862, “PubChem BioAssay data set” (2004):
#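 Method: 48-hour compound exposure of cells in 96-well plates, five concentrations, linear interpolation of endpoints. Here, GI50 denotes the concentration required for 50% inhibition of growth.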 Active and inactive are the calls of the source. Cut-off read from the data, not from the text of the source: active = GI50 up to about 1.1 µM and inactive = higher.
# What was measured:
# Assay in all cases: inhibition of tumour cell growth, NCI panel, 48 h
# LOX IMVI = test system: LOX IMVI
# KM12 = test system: KM12
# NCI-H23 = test system: NCI-H23
# SK-MEL-28 = test system: SK-MEL-28
# U-251 = test system: U-251
# NCI-H226 = test system: NCI-H226
# HCT-116 = test system: HCT-116
# A498 = test system: A498
# MOLT-4 = test system: MOLT-4
# DMS-273 = test system: DMS-273
# CAKI-1 = test system: CAKI-1
# SK-OV-3 = test system: SK-OV-3
# OVCAR-8 = test system: OVCAR-8
# LXFL 529 = test system: LXFL 529
# DMS-114 = test system: DMS-114
# MDA-MB-231 = test system: MDA-MB-231
# DU-145 = test system: DU-145
# BT-549 = test system: BT-549
# NCI/ADR-RES = test system: NCI/ADR-RES
# RXF 631 = test system: RXF 631
SMILES,GI50 (LOX IMVI),GI50 (KM12),GI50 (NCI-H23),GI50 (SK-MEL-28),GI50 (U-251),GI50 (NCI-H226),GI50 (HCT-116),GI50 (A498),GI50 (MOLT-4),GI50 (DMS-273),GI50 (CAKI-1),GI50 (SK-OV-3),GI50 (OVCAR-8),GI50 (LXFL 529),GI50 (DMS-114),GI50 (MDA-MB-231),GI50 (DU-145),GI50 (BT-549),GI50 (NCI/ADR-RES),GI50 (RXF 631)
Cc1n(CC(=O)c2ccc([N+](=O)[O-])cc2)c2c([n+]1CC(C)C)C(=O)c1ccccc1C2=O,< 0.01 µM (active),< 0.0211 µM (active),< 0.01 µM (active),0.0411 µM (active),< 0.01 µM (active),< 0.0111 µM (active),< 0.02 µM (active),0.668 µM (active),< 0.0204 µM (active),< 0.01 µM (active),0.121 µM (active),0.361 µM (active),< 0.01 µM (active),–,–,–,–,–,–,–
c1ccc([P+](Cc2csnn2)(c2ccccc2)c2ccccc2)cc1,> 100 µM (inactive),> 100 µM (inactive),> 100 µM (inactive),> 100 µM (inactive),> 100 µM (inactive),> 100 µM (inactive),> 100 µM (inactive),> 100 µM (inactive),> 100 µM (inactive),> 100 µM (inactive),> 100 µM (inactive),> 100 µM (inactive),> 100 µM (inactive),> 100 µM (inactive),64 µM (inactive),–,–,–,–,–
Cc1nc2c(n1C)C(=O)c1nc(CBr)[nH]c(=O)c1C2=O,46.5 µM (inactive),–,> 100 µM (inactive),> 100 µM (inactive),> 100 µM (inactive),–,> 100 µM (inactive),> 100 µM (inactive),> 100 µM (inactive),> 100 µM (inactive),–,75.7 µM (inactive),> 100 µM (inactive),> 100 µM (inactive),75.9 µM (inactive),–,–,–,–,–
CCc1n[nH]c(=O)n1CC,> 100 µM (inactive),> 100 µM (inactive),> 100 µM (inactive),> 100 µM (inactive),> 100 µM (inactive),> 100 µM (inactive),> 100 µM (inactive),> 100 µM (inactive),> 100 µM (inactive),–,> 100 µM (inactive),> 100 µM (inactive),> 100 µM (inactive),–,–,> 100 µM (inactive),> 100 µM (inactive),> 100 µM (inactive),> 100 µM (inactive),–
Cc1ccc(N2Cc3c(ccc4ccccc34)OP2(=S)N2CCCC2)cc1 (configuration not stated),> 100 µM (inactive),> 100 µM (inactive),> 100 µM (inactive),> 100 µM (inactive),> 100 µM (inactive),> 100 µM (inactive),> 100 µM (inactive),> 56.5 µM (inactive),> 44.5 µM (inactive),> 100 µM (inactive),> 100 µM (inactive),> 100 µM (inactive),> 100 µM (inactive),–,–,–,–,–,> 100 µM (inactive),–
COc1cccc(CC2Cc3ccccc3CC(=O)N2)c1 (configuration not stated),10.1 µM (inactive),22 µM (inactive),42.6 µM (inactive),54.2 µM (inactive),47.1 µM (inactive),20.8 µM (inactive),49 µM (inactive),–,31.3 µM (inactive),–,16.6 µM (inactive),62.8 µM (inactive),53.8 µM (inactive),–,–,10 µM (inactive),> 100 µM (inactive),28 µM (inactive),20 µM (inactive),–
O=NN(CC1(O)OCC(O)C(O)C1O)C(Cc1c[nH]c2ccccc12)C(=O)O (configuration not stated),> 100 µM (inactive),> 100 µM (inactive),> 100 µM (inactive),> 100 µM (inactive),> 100 µM (inactive),–,> 100 µM (inactive),> 100 µM (inactive),> 100 µM (inactive),> 100 µM (inactive),–,> 100 µM (inactive),> 100 µM (inactive),–,> 100 µM (inactive),–,–,–,–,> 100 µM (inactive)
c1ccc2c(NCCCCCCCCNc3cccc4ccccc34)cccc2c1,–,> 100 µM (inactive),25.3 µM (inactive),19.5 µM (inactive),63.2 µM (inactive),85.1 µM (inactive),19.8 µM (inactive),44.1 µM (inactive),16.7 µM (inactive),29.6 µM (inactive),19.7 µM (inactive),> 100 µM (inactive),24.5 µM (inactive),18.6 µM (inactive),25.6 µM (inactive),–,–,–,–,18.9 µM (inactive)
O=S(=O)(c1ccc(I)cc1)N(c1ccccc1)S(=O)(=O)C(F)(F)C(F)(F)C(F)(F)C(F)(F)F,96.2 µM (inactive),18.8 µM (inactive),43.2 µM (inactive),40.6 µM (inactive),75.2 µM (inactive),22.9 µM (inactive),19.9 µM (inactive),–,39.4 µM (inactive),–,34.1 µM (inactive),26.4 µM (inactive),48 µM (inactive),–,–,23 µM (inactive),46.7 µM (inactive),> 100 µM (inactive),43.3 µM (inactive),–
COc1cccc(NC(=O)CC(=O)NN2C(=O)/C(=C/c3ccc(N(CCC#N)CCC#N)cc3)N=C2c2cc([N+](=O)[O-])ccc2Cl)c1,> 100 µM (inactive),> 100 µM (inactive),> 100 µM (inactive),> 100 µM (inactive),75.3 µM (inactive),13.6 µM (inactive),> 100 µM (inactive),–,3.53 µM (inactive),> 100 µM (inactive),> 100 µM (inactive),> 100 µM (inactive),45.8 µM (inactive),40.7 µM (inactive),31 µM (inactive),–,–,–,–,> 100 µM (inactive)
CC(=O)Oc1ccccc1[C@H]1CC(=O)C[C@H](c2ccccc2OC(C)=O)C12C(=O)c1ccccc1C2=O,–,59.6 µM (inactive),26.4 µM (inactive),17 µM (inactive),38.9 µM (inactive),27.6 µM (inactive),29.4 µM (inactive),25.6 µM (inactive),17.8 µM (inactive),–,20.9 µM (inactive),43 µM (inactive),39.6 µM (inactive),–,–,27.1 µM (inactive),35.4 µM (inactive),24.9 µM (inactive),29.2 µM (inactive),–
C=C1C2=C(CCCC2)C(=O)OC12CCCCC2,66.4 µM (inactive),85.5 µM (inactive),36.9 µM (inactive),79.4 µM (inactive),73.6 µM (inactive),93.8 µM (inactive),47.1 µM (inactive),–,38.5 µM (inactive),51.4 µM (inactive),–,> 100 µM (inactive),> 100 µM (inactive),40.7 µM (inactive),29.5 µM (inactive),–,–,–,–,72.1 µM (inactive)
Cc1[nH]c(=O)[nH]c(=O)c1/C=C/C(=O)NC(CO)CC(C)C (configuration not stated),> 375 µM (inactive),> 375 µM (inactive),> 362 µM (inactive),305 µM (inactive),> 343 µM (inactive),> 375 µM (inactive),322 µM (inactive),> 375 µM (inactive),237 µM (inactive),> 375 µM (inactive),146 µM (inactive),> 300 µM (inactive),160 µM (inactive),–,260 µM (inactive),–,–,–,> 375 µM (inactive),–
COc1ccc(CCn2nccc2C)cc1,> 100 µM (inactive),> 100 µM (inactive),> 100 µM (inactive),> 100 µM (inactive),> 100 µM (inactive),–,> 100 µM (inactive),–,> 100 µM (inactive),–,> 100 µM (inactive),> 100 µM (inactive),> 100 µM (inactive),–,–,> 100 µM (inactive),> 100 µM (inactive),> 100 µM (inactive),> 100 µM (inactive),–
CC1(Cl)CC2C(CC1Sc1nnnn1-c1ccccc1)C2(C)C (configuration not stated),> 100 µM (inactive),55.6 µM (inactive),64.3 µM (inactive),> 100 µM (inactive),–,> 100 µM (inactive),69.8 µM (inactive),–,30.1 µM (inactive),71.9 µM (inactive),–,–,> 100 µM (inactive),60.3 µM (inactive),45.9 µM (inactive),–,–,–,–,–
Cc1ccc(SSCCCCCS(=O)O)cc1,16.8 µM (inactive),36.1 µM (inactive),28.2 µM (inactive),46.5 µM (inactive),11 µM (inactive),–,14.6 µM (inactive),19 µM (inactive),6.34 µM (inactive),–,–,> 100 µM (inactive),–,14.6 µM (inactive),21 µM (inactive),–,–,–,–,25.9 µM (inactive)
NCCCCCC(CCN)SCC1OC(n2cnc3c(N)ncnc32)C(O)C1O (configuration not stated),> 1060 µM (inactive),416 µM (inactive),764 µM (inactive),578 µM (inactive),687 µM (inactive),589 µM (inactive),233 µM (inactive),> 1500 µM (inactive),551 µM (inactive),369 µM (inactive),411 µM (inactive),927 µM (inactive),> 708 µM (inactive),–,339 µM (inactive),–,–,–,> 948 µM (inactive),–
COc1ccccc1-c1cc(O)c2cc(C)cnc2n1,46 µM (inactive),5.5 µM (inactive),40 µM (inactive),22.6 µM (inactive),–,52.2 µM (inactive),–,24.9 µM (inactive),31.5 µM (inactive),–,19.3 µM (inactive),25.3 µM (inactive),66.2 µM (inactive),–,–,67.3 µM (inactive),47.9 µM (inactive),45.5 µM (inactive),15 µM (inactive),–
"COc1c(O)c(C=O)c2c(O)c(-c3c(C)cc4c(C(C)C)c(OC)c(O)c(C=O)c4c3O)c(C)cc2c1C(C)C [6,6'-METHOXYGOSSYPOL]",–,5.05 µM (inactive),3.61 µM (inactive),6.61 µM (inactive),3.2 µM (inactive),2.43 µM (inactive),2.61 µM (inactive),11.4 µM (inactive),7.53 µM (inactive),5.11 µM (inactive),6.08 µM (inactive),4.19 µM (inactive),3.74 µM (inactive),3.96 µM (inactive),3.08 µM (inactive),–,–,–,–,–
